Laboratory results: US20240262842A1, “SMALL MOLECULE INHIBITORS OF KRAS G12C MUTANT” (Merck Sharp & Dohme LLC, priority 2021, published 2024)

What was measured:
[1] = biological target: T1, interaction between GMPPNP-bound recombinant K-Ras4B G12C mutant protein and cRAF RAS-binding domain (cRAF-RBD) (Homo sapiens, UniProt P01116, G12C); test: Inhibitory activity on interaction between KRAS G12C and cRAF (Alpha technology); details: GMPPNP-bound KRAS G12C incubated with compound 25° C. 1 hour; Table 2-1; read-out: IC50
T1 construct: His-tag (N)
T1 sequence (P01116 with tags, fused parts or gaps isoform P01116-2 G12C): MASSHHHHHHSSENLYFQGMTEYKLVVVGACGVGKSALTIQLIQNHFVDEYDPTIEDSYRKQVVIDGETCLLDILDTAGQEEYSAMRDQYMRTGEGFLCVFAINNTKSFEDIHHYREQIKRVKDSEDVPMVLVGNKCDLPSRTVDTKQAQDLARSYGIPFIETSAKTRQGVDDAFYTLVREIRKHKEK
Procedure, shortened: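 His-tagged K-Ras4B G12C (aa 1-169), GMPPNP-loaded, preincubated with compound 1 h at 25° C in pH 7.5 Tris buffer with MgCl2, TCEP, Tween 20. cRAF-RBD (aa 50-132) and Alpha reagents then added for 1.5 h; Alpha signal normalised to DMSO (0%) and GDP-bound KRAS (100%); IC50 from dose titration.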

[2] = test system: MIA PaCa-2 cells; test: Growth inhibition activity on KRAS-G12C mutant cell line (CellTiter-Glo 3D); format: cell-based, human; details: MIA PaCa-2, 3-day culture with compound, Table 3-1
Procedure, shortened: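 MIA PaCa-2 cells in RPMI1640 with 10% FBS, U-bottom wells, cultured 1 day before compound (0.2% DMSO final), then 3 days at 37 °C, 5% CO2. Viability by CellTiter-Glo 3D luminescence; growth inhibition versus untreated wells gives IC50 (nM).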

SMILES | IC50 [1] | IC50 ([2]; Homo sapiens, MIA PaCa-2, 72 h) | IC50 [2]
Cc1c2cc(C(F)(F)F)c3c(c2nn1C)N(C)CCc1cc(C(=O)c2cc(F)c(NC(=O)/C=C/CNC4(C)CC4)c(F)c2)n2cccc-3c12 (single isomer, unassigned) [Example 155, (E)-N-(2,6-difluoro-4-(9,10,12-trimethyl-7-(trifluoromethyl)-10,12,13,14-tetrahydro-indolizino[8′,1′:4,5,6]-azocino[3,2-g]indazole-2-carbonyl)phenyl)-4-((1-methylcyclopropyl)-amino)but-2-enamide] | 8.95 nM | 13.5 nM | 
COc1cc2c(ncn2C)c2c1-c1cccn3c(C(=O)c4cc(F)c(NC(=O)/C=C/CN[C@H]5CCOC5)c(F)c4)cc(c13)CCN2C (single isomer, unassigned) [Example 159] | 7.22 nM | 8.16 nM | 
COc1cc2c(ncn2C)c2c1-c1cccn3c(C(=O)c4cc(F)c(NC(=O)/C=C/CNC5(C)CC5)c(F)c4)cc(c13)CCN2C (single isomer, unassigned) [Example 160, (E)-N-(2,6-difluoro-4-(7-methoxy-9,12-dimethyl-9,12,13,14-tetrahydro-imidazo[4″,5″:5′,6′]benzo-[1′,2′:2,3]azocino[4,5,6-hi]indolizine-2-carbon-yl)phenyl)-4-((1-methyl-cyclopropyl)amino)but-2-enamide] | 5.71 nM | 9.25 nM | 
COCc1nc2c3c(c(OC)cc2n1C)-c1cccn2c(C(=O)c4cc(F)c(NC(=O)/C=C/CN[C@H]5CCOC5)c(F)c4)cc(c12)CCN3C (single isomer, unassigned) [Example 171] | 6.34 nM | 13.5 nM | 
COCCn1cnc2c3c(c(C(F)(F)F)cc21)-c1cccn2c(C(=O)c4cc(F)c(NC(=O)/C=C/CNC5(C)COC5)c(F)c4)cc(c12)CCN3C (single isomer, unassigned) [Example 178, (E)-N-(2,6-difluoro-4-(9-(2-methoxyethyl)-12-methyl-7-(trifluorometh-yl)-9,12,13,14-tetrahydro-imidazo[4″,5″:5′,6′]benzo-[1′,2′:2,3]azocino[4,5,6-hi]indolizine-2-carbonyl)-phenyl)-4-((3-methyl-oxetan-3-yl)amino)but-2-enamide] | 32.4 nM | 41.3 nM | 
CN1CCc2cc(C(=O)c3cc(F)c(NC(=O)/C=C/CNC4(C)COC4)c(F)c3)n3cccc(c23)-c2c(C(F)(F)F)cc3[nH]cnc3c21 (single isomer, unassigned) [Example 179, (E)-N-(2,6-difluoro-4-(12-methyl-7-(trifluorometh-yl)-9,12,13,14-tetrahydro-imidazo[4″,5″:5′,6′]benzo-[1′,2′:2,3]azocino[4,5,6-hi]indolizine-2-carbonyl)-phenyl)-4-((3-methyloxe-tan-3-yl)amino)but-2-enamide] | 41.6 nM | 139 nM | 
CC1(NC/C=C/C(=O)Nc2c(F)cc(C(=O)c3cc4c5c(cccn35)-c3c(cc(N5CCCC5=O)cc3C(F)(F)F)OCC4)cc2F)COC1 (single isomer, unassigned) [Example 183, (E)-N-(2,6-difluoro-4-(7-(2-oxopyrrolidin-1-yl)-9-(trifluoromethyl)-3,4-dihydrobenzo[2,3]oxocino-[4,5,6-hi]indolizine-1-carbonyl)phenyl)-4-((3-methyloxetan-3-yl)-amino)-but-2-enamide] | 35.2 nM | 112 nM | 
COCc1nc2c3c(c(C(F)(F)F)cc2n1C)-c1cccn2c(C(=O)c4cc(F)c(NC(=O)/C=C/CN[C@H]5CCOC5)c(F)c4)nc(c12)CCN3C (single isomer, unassigned) [Example 184] | 48.3 nM | 28.1 nM | 
COCc1nc2c3c(c(OC)cc2n1C)-c1cccn2c(C(=O)c4cc(F)c(NC(=O)/C=C/CN5CCCC5)c(F)c4)cc(c12)CCN3C (single isomer, unassigned) [Example 188, (E)-N-(2,6-difluoro-4-(7-methoxy-10-(methoxy-methyl)-9,12-dimethyl-9,12,13,14-tetrahydro-imidazo[4″,5″:5′,6′]benzo-[1,2:2,3]azocino[4,5,6-hi]indolizine-2-carbonyl)-phenyl)-4-(pyrrolidin-1-yl)but-2-enamide] | 72.5 nM | 39.7 nM | 
COCCn1c(C)nc2c3c(c(OC)cc21)-c1cccn2c(C(=O)c4cc(F)c(NC(=O)/C=C/CNC5(C)CC5)c(F)c4)cc(c12)CCN3C (single isomer, unassigned) [Example 200, (E)-N-(2,6-difluoro-4-(7-methoxy-9-(2-methoxyethyl)-10,12-dimethyl-9,12,13,14-tetrahydroimidazo[4″,5″:5′,6′]benzo[1′,2′:2,3]azocino[4,5,6-hi]indolizine-2-carbonyl)phenyl)-4-((1-methylcyclopropyl)amino)but-2-enamide] | 13.7 nM | 4.62 nM | 
COCCn1cnc2c3c(c(OC)cc21)-c1cccn2c(C(=O)c4cc(F)c(NC(=O)/C=C/CN[C@H]5CCOC5)c(F)c4)cc(c12)CCN3C (single isomer, unassigned) [Example 203] | 20.4 nM | 11 nM | 

Next, values leading:

IC50 [1] | IC50 ([2]; Homo sapiens, MIA PaCa-2, 72 h) | IC50 [2] | SMILES
10.2 nM | 7.93 nM |  | Cc1c2cc(C(F)(F)F)c3c(c2nn1C)N(C)CCc1cc(C(=O)c2cc(F)c(NC(=O)/C=C/CN[C@H]4CCOC4)c(F)c2)n2cccc-3c12 (single isomer, unassigned) [Example 154]
27.9 nM | 16.4 nM |  | CN1CCc2nc(C(=O)c3cc(F)c(NC(=O)/C=C/CN[C@H]4CCOC4)c(F)c3)n3cccc(c23)-c2c(C(F)(F)F)cc3c(ncn3C)c21 (single isomer, unassigned) [Example 167]
43.8 nM | 15.6 nM |  | COc1cc2c(nc(C(F)(F)F)n2C)c2c1-c1cccn3c(C(=O)c4cc(F)c(NC(=O)/C=C/CN[C@H]5CCOC5)c(F)c4)cc(c13)CCN2C (single isomer, unassigned) [Example 168]
14.1 nM | 47.7 nM |  | COCc1nc2c3c(c(OC)cc2n1C)-c1cccn2c(C(=O)c4cc(F)c(NC(=O)/C=C/CNC5(C)COC5)c(F)c4)cc(c12)CCN3C (single isomer, unassigned) [Example 170, (E)-N-(2,6-difluoro-4-(7-methoxy-10-(methoxy-methyl)-9,12-dimethyl-9,12,13,14-tetrahydro-imidazo[4″,5″:5′,6′]benzo-[1′,2′:2,3]azocino[4,5,6-hi]indolizine-2-carbonyl)-phenyl)-4-((3-methyl-oxetan-3-yl)amino)but-2-enamide]
67.4 nM | 25.1 nM |  | Cc1c2cc(C(F)(F)F)c3c(c2nn1C)N(C)CCc1nc(C(=O)c2cc(F)c(NC(=O)/C=C/CN[C@H]4CCOC4)c(F)c2)n2cccc-3c12 (single isomer, unassigned) [Example 176]
39.5 nM | 38.5 nM |  | COCc1nc2c3c(c(OC)cc2n1C)-c1cccn2c(C(=O)c4cc(F)c(NC(=O)/C=C/CN[C@H]5CCOC5)c(F)c4)nc(c12)CCN3C (single isomer, unassigned) [Example 177]
49.3 nM | 12.7 nM |  | CN1CCc2cc(C(=O)c3cc(F)c(NC(=O)/C=C/CN4CC[C@H]4C(C)(C)O)c(F)c3)n3cccc(c23)-c2c(C(F)(F)F)cc3c(ncn3C)c21 (single isomer, unassigned) [Example 180]
48.1 nM | 21 nM |  | COCc1nc2c3c(c(OC)cc2n1C)-c1cccn2c(C(=O)c4cc(F)c(NC(=O)/C=C/CNC5(C)CC5)c(F)c4)nc(c12)CCN3C (single isomer, unassigned) [Example 181, (E)-N-(2,6-difluoro-4-(6-methoxy-9-(methoxy-methyl)-8,11-dimethyl-8,11,12,13-tetrahydro-1,2a,8,10,11-pentaaza-cycloocta[1,2,3-cd:5,4-e′]-diindene-2-carbonyl)phen-yl)-4-((1-methylcyclo-propyl)amino)but-2-en-amide]
35.2 nM | 27.8 nM |  | CN1CCc2nc(C(=O)c3cc(F)c(NC(=O)/C=C/CNC4(C)CC4)c(F)c3)n3cccc(c23)-c2c(C(F)(F)F)cc3c(ncn3C)c21 (single isomer, unassigned) [Example 182]
16.7 nM | 10.3 nM |  | COCCn1cnc2c3c(c(C(F)(F)F)cc21)-c1cccn2c(C(=O)c4cc(F)c(NC(=O)/C=C/CN[C@H]5CCOC5)c(F)c4)cc(c12)CCN3C (single isomer, unassigned) [Example 186]
10.1 nM | 3.67 nM |  | CN1CCc2cc(C(=O)c3cc(F)c(NC(=O)/C=C/CN4CC[C@H]4CO)c(F)c3)n3cccc(c23)-c2c(C(F)(F)F)cc3c(ncn3C)c21 (single isomer, unassigned) [Example 199]
17.6 nM | 5.83 nM |  | COCCn1c(C)nc2c3c(c(OC)cc21)-c1cccn2c(C(=O)c4cc(F)c(NC(=O)/C=C/CN[C@H]5CCOC5)c(F)c4)cc(c12)CCN3C (single isomer, unassigned) [Example 201]
13 nM | 10.2 nM |  | COCCn1cnc2c3c(c(OC)cc21)-c1cccn2c(C(=O)c4cc(F)c(NC(=O)/C=C/CNC5(C)CC5)c(F)c4)cc(c12)CCN3C (single isomer, unassigned) [Example 202, (E)-N-(2,6-difluoro-4-(7-methoxy-9-(2-methoxy-ethyl)-12-methyl-9,12,13,14-tetrahydro-imidazo[4″,5″:5′,6′]benzo-[1′,2′:2,3]azocino[4,5,6-hi]indolizine-2-carbonyl)-phenyl)-4-((1-methyl-cyclopropyl)amino)but-2-enamide]
36.4 nM |  | 118 nM | CC(O)[C@]1(C)CCCN1C/C=C/C(=O)Nc1c(F)cc(C(=O)c2cc3c4c(cccn24)-c2c(C(F)(F)F)cc4c(ncn4C)c2N(C)CC3)cc1F (single isomer, unassigned) [Example 204]
